Columns and labels:
estrogen receptor [1] = assay: Luciferase assay (3×ERE TATA luc), Ishikawa cells; type: cell-based; conditions: for Estrogen receptor subtype through which the substance acts (luciferase assay with siERα / siERβ): Ishikawa endometrial cancer cells, siRNA 50 nM; for Luciferase activity (-fold): Ishikawa, 24 h, non-treated group = 1
Description: (§1) MCF-7 (estrogen receptor-positive human breast cancer cell line), Ishikawa (estrogen receptor-positive endometrial cancer cell line), and MG-63 (human osteosarcoma; osteoblast-like cell line) were obtained from the American Type Culture Collection (ATCC). BG-1 (uterine cancer cell line) was furnished by courtesy of Dr. Korach (NIH, USA). Cells were cultured in a Dulbecco's modified Eagle's medium (DMEM) containing 10% fetal bovine serum (FBS), 100 U/ml penicillin and 100 U/ml streptomycin, at 37° C. and 5% CO2.
(§2) The luciferase assay is an assay of estimating an estrogenic activity by measuring the degree of a luciferase activity generated upon binding of a substance having an estrogenic activity to an estrogen receptor. This assay was carried out in the following procedure. Unless otherwise specified, the reagents used were purchased from Gibco (Karlwruhe, Germany).
(§3) The luciferase reporter plasmid used was 3×ERE TATA luc. (Addgene, Cambridge, USA). In order to control transfection efficiency, phRenilla-luciferase-CMV (Promega, Mannheim, Germany) as an internal control plasmid was co-transfected. Cells were cultured at a density of 2×10^5 cells/well in a 6-well plate, in a phenol red-free DMEM (Dulbecco's modified Eagle's medium) supplemented with 100 U/ml penicillin, […] streptomycin, 1 mM sodium pyruvate, 1 mM glutamine, and 10% charcoal dextran-treated fetal bovine serum (FBS). After the cells were cultured to a 50 to 60% confluence, the medium was removed, the cells were placed at 37° C. and 5% CO2 for 6 hours on a serum-free OPTI-MEM medium containing plasmid DNA constructs and 2 μg/ml of polyethyleneimine (PEI), according to the manufacturer's instructions. 1 μg/well of 3×ERE TATA luc and 100 ng of a phRL-CMV plasmid were subjected to transfection.
(§4) After the period of transfection, the medium was replaced with a phenol-free DMEM supplemented with 10% charcoal dextran-treated FBS, and the cells were cultured at 37° C. and 5% CO2 overnight prior to treatment of eupatilin.
(§5) After 18 hours of culture, the medium was replaced with a eupatilin-containing medium. The proteins were extracted 24 hours later, and firefly and renilla luciferase activities were measured on a luminometer (Molecular Devices, Sunnyvale, Calif.) using a Dual Luciferase Assay kit (Promega, Madison, Wis.) according to the manufacturer's instructions.
(§6) All experiments were carried out in triplicate and were repeated at least three times. For the luciferase assay, total cell lysates were prepared, the firefly luciferase activity was assayed and normalized to the renilla luciferase activity according to the manufacturer's instructions (Promega). Further, in order to knock down the cell levels of specific proteins, cells with co-transfection of small interfering RNAs (siRNAs) together with 3×ERE TATA luc and phRL-CMV were prepared and subjected to the same treatment of eupatilin or the like as in the cells which were not treated with siRNAs. The siRNAs used were purchased from Bioneer Corporation (Daejeon, South Korea) and treated at a concentration of 50 nM. The “siERα” means siRNA which inhibits the expression of ERα, and the “siERβ” means siRNA which inhibits the expression of ERβ.

estrogen receptor [2] = assay: Luciferase assay (3×ERE TATA luc), MCF7 cell line; type: cell-based, human; conditions: for Estrogen receptor subtype through which the substance acts (luciferase assay with siERα / siERβ): MCF-7 breast cancer cells, siRNA 50 nM; for Luciferase activity (-fold): MCF7, 24 h, non-treated group = 1
Description: as §1, §2, §3, §4, §5, §6

estrogen receptor [3] = molecular target: T1, estrogen receptor (Homo sapiens, UniProt Q92731); assay: Luciferase assay (3×ERE TATA luc), MG63 cell line; type: cell-based; conditions: for Luciferase activity (-fold): MG63, 24 h, non-treated group = 1
T1 construct: MG-63 (human osteosarcoma; osteoblast-like cell line); endogenous in cells; host or cells: MG-63
Description: as §1, §2, §3, §4, §5
All experiments were carried out in triplicate and were repeated at least three times. For the luciferase assay, total cell lysates were prepared, the firefly luciferase activity was assayed and normalized to the renilla luciferase activity according to the manufacturer's instructions (Promega). […]

MCF7 breast cancer cells = assay: MTT assay, cancer cell growth; type: cell-based, human; conditions: 48 h, control DMSO
Description: Cell viability was estimated by the MTT (3-[4,5-dimethylthiazol-2-yl]-2,5-diphenyltetrazolium bromide; Sigma-Aldrich) assay to confirm cancer cell growth inhibitory effects of eupatilin.
MCF7 breast cancer cells were seeded onto a 96-well plate and incubated for 24 hours. […] On the day of collection, 50 μl of MTT solution (5 mg/ml in PBS) was added to the medium, followed by incubation at 37° C. for 4 hours. The MTT-containing medium was removed and the cells were solubilized in DMSO (100 μl) for 30 min. The cell viability was determined in terms of an optical density at 540 nm using a microplate spectrophotometer (SpectraMax; Molecular Devices, Sunnyvale, Calif.).
Ethanol which is a vehicle was served as control for the E2-treated group, and DMSO was served as control for the eupatilin-treated group.
The viability is expressed in terms of a relative ratio by taking a value of the control to be 100, and the lethality is also expressed in terms of a relative ratio by taking a value of the control to be 100.

MG-63 cells = assay: ALP activity in osteoblastic cells; type: cell-based, human; conditions: 24 h
Description: The ALP activity in MG-63 cells treated with eupatilin was measured to confirm that eupatilin enhances a bone density in osteoblastic cells. […] Based on the fact that ALP degrades p-nitrophenylphosphate into p-nitrophenol and phosphate, effects of eupatilin on osteoblasts were observed by measuring an ALP activity in terms of an absorbance ratio between the absorbance of each substance and the absorbance of the control at 405 nm.
After 24 hours of the treatment, lysates were prepared and slowly shaken for 30 min. Then, the ALP activity was assayed by measuring the release of p-nitrophenol from p-nitrophenylphosphate (20 mM in 1M diethanolamine buffer supplemented with MgCl2 at pH 9.8). The absorbance was measured at 405 nm. The standard curve was drawn using various concentrations of […] within the range of 0 to 0.1 U/ml PBS-T. The ALP values were adjusted for the protein content of the corresponding cell lysates. The cultures protein content was quantified by means of a bicinchoninic acid protein assay (Thermo Scientific). The results obtained were compared with those of the control to which only BSA was added at a concentration of 100 nM and no specimen was added.

estrogen receptor [4] = assay: Luciferase assay (3×ERE TATA luc), BG-1 cell line; type: cell-based; conditions: 24 h, non-treated group = 1
Description: as §1, §2
as §3, with “1 μg/well of 3×ERE TATA luc and 100 ng of a phRL-CMV plasmid were subjected to transfection.” left out
as §5, with “instructions. […]” for “instructions.”

T1 sequence (Q92731 whole entry): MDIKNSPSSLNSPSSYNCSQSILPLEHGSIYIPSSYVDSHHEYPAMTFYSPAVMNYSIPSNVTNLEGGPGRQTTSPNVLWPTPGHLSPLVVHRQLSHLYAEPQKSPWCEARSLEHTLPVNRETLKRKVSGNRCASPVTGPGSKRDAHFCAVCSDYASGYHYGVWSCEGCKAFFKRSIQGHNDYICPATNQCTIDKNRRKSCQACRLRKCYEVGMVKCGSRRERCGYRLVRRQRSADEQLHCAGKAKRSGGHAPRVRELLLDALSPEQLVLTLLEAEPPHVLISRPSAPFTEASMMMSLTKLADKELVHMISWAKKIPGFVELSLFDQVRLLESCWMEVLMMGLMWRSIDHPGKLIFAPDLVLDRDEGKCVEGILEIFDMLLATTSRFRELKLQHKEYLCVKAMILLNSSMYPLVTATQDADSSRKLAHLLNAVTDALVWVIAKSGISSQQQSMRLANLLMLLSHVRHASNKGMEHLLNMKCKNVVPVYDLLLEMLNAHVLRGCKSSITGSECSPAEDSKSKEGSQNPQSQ

**Q.** For `C[C@]12CC[C@@H]3c4ccc(O)cc4CC[C@H]3[C@@H]1CC[C@@H]2O` [E2, 17-β-estradiol, reference compound], which “Estrogen receptor subtype through which the substance acts (luciferase assay with siERα / siERβ)” value (estrogen receptor [1]; E2 10^−7 M, FIG. 2) is on record?
**A.** Its value is “largely induces cell proliferation via only ERα”.

**Q.** And the “Estrogen receptor subtype through which the substance acts (luciferase assay with siERα / siERβ)” value (estrogen receptor [2]; E2 10^−7 M, FIG. 1)?
**A.** Its value is “largely induces cell proliferation via only ERα”.

**Q.** What does the source list for `COc1ccc(-c2cc(=O)c3c(O)c(OC)c(O)cc3o2)cc1OC` [Eupatilin, 5,7-dihydroxy-3′,4′,6-trimethoxyflavone]?
**A.** Luciferase activity (-fold) (estrogen receptor [3]; eupatilin 0.01 μg/ml): 2.1 -fold; Luciferase activity (-fold) (estrogen receptor [3]; eupatilin 0.1 μg/ml): 1.7 -fold; Luciferase activity (-fold) (estrogen receptor [3]; eupatilin 1 μg/ml): 1.6 -fold; Estrogen receptor subtype through which the substance acts (luciferase assay with siERα / siERβ) (estrogen receptor [3]; MG-63 osteoblastic cells, siRNA 50 nM, eupatilin 0.1 or 1.0 μg/ml, FIG. 6): acts selectively on ERβ; Cell lethality (% relative to control) (MCF7 breast cancer cells; eupatilin 0.1 μg/ml): 21.5 % relative to control; Cell lethality (% relative to control) (MCF7 breast cancer cells; eupatilin 1 μg/ml): 24.5 % relative to control; Estrogen receptor subtype through which the substance acts (luciferase assay with siERα / siERβ) (estrogen receptor [1]; eupatilin 0.1 or 1.0 μg/ml, FIG. 4): acts equally on both ERα and ERβ; Luciferase activity (-fold) (estrogen receptor [1]; eupatilin 0.01 μg/ml): 1.4 -fold; Luciferase activity (-fold) (estrogen receptor [1]; eupatilin 0.1 μg/ml): 1.9 -fold; Luciferase activity (-fold) (estrogen receptor [1]; eupatilin 1 μg/ml): 2.9 -fold; ALP activity (% relative to control) (MG-63 cells; eupatilin 0.2 μg/ml): 20.5 % relative to control; ALP activity (% relative to control) (MG-63 cells; eupatilin 2.0 μg/ml): 60 % relative to control; Luciferase activity (-fold) (estrogen receptor [2]; eupatilin 0.01 μg/ml): 2.4 -fold; Luciferase activity (-fold) (estrogen receptor [2]; eupatilin 0.1 μg/ml): 2.3 -fold; Luciferase activity (-fold) (estrogen receptor [2]; eupatilin 1 μg/ml): 2.8 -fold; Estrogen receptor subtype through which the substance acts (luciferase assay with siERα / siERβ) (estrogen receptor [2]; eupatilin 0.1 or 1.0 μg/ml, FIG. 3): acts equally on both ERα and ERβ; Luciferase activity (-fold) (estrogen receptor [4]; eupatilin 0.01 μg/ml): 2.9 -fold; Luciferase activity (-fold) (estrogen receptor [4]; eupatilin 0.1 μg/ml): 3.3 -fold; Luciferase activity (-fold) (estrogen receptor [4]; eupatilin 1 μg/ml): 3.7 -fold
